The assay deals with Dihydroorotate dehydrogenase (quinone), mitochondrial (Homo sapiens, UniProt Q02127). Description: DHODH enzymatic assay. The protocol:
To detect DHODH enzyme activities, dichloroindophenol (DCIP) is added as the final electron acceptor in the assay. DCIP can accept electrons from the reduced coenzyme Q generated in the assay, or from dihydroorotate (DHO) via FMN by binding presumably to the ubiquinone pocket. […] The assay buffer contained […], pH 7.5, 150 mM NaCl, 0.5 mM EDTA, and 0.1% Triton X-100 in MilliQ water. Substrate consisting of 20 mM DHO, 5mM CoQ6, and 1mM DCIP in assay buffer, initiates the reaction. […] Absorbance measurements were obtained using the BMG Phera Star plate-reading spectrophotomer. Purified human DHODH was purchased from Proteros (cat. No. PR-0044). Chemicals were purchased from Sigma-Aldrich, Teknova, and Avanti Polar Lipids. Liquid handling was performed using Labcyte Echo and Formulatrix Tempest.

Structures are written as SMILES.

In BindingDB's records for patent WO2022070071 (JANSSEN BIOTECH, INC., 2022) one finds IC50 data, which are given here for seven compounds.

Usually IC50 stands for the point on the concentration scale where inhibition reaches its midpoint.

Dihydroorotate dehydrogenase (quinone), mitochondrial, sequence (Q02127 whole entry): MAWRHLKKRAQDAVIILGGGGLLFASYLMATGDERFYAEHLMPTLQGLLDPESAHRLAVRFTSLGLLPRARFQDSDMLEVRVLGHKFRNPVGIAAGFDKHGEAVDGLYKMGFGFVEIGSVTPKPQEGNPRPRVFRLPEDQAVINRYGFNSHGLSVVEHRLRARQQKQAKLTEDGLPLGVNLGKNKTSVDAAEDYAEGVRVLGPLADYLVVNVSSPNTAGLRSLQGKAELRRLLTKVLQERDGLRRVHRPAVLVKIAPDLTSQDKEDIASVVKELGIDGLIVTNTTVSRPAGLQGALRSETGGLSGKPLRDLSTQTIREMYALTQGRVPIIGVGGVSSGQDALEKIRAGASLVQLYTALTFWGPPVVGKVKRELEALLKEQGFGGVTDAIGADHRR

For the compound `Cc1ccccc1-c1cc(C(C)C)c2cc(-c3cn(C)c(C(C)(C)O)n3)c(F)cn2c1=O` [WO2022070071, Example 1], the IC50 came out at 2.11 nM.

For the compound `Cc1n[nH]c(Cl)c1-c1cc(C(C)C)c2cc(-c3cn(C)c(C(C)(C)O)n3)c(F)cn2c1=O` [WO2022070071, Example 4], half-maximal inhibition (IC50) was put at 2.69 nM.

For `Cc1n[nH]c(Cl)c1-c1cc(C(C)C)c2cc(-c3nc(C(C)(C)O)n(C)n3)c(F)cn2c1=O` [WO2022070071, Example 5], half-maximal inhibition (IC50) was put at 2.1 nM.

Compound `Cc1n[nH]c(C(F)(F)F)c1-c1cc(C(C)C)c2cc(-c3cn(C)c(C(C)(C)O)n3)c(F)cn2c1=O` [WO2022070071, Example 6] gave an IC50 of 4.07 nM. This IC50 is about 1.9-fold higher than that of the compound before.

`Cc1n[nH]c(C(F)(F)F)c1-c1cc(C(C)C)c2cc(-c3nc(C(C)(C)O)n(C)n3)c(F)cn2c1=O` [WO2022070071, Example 7] showed an IC50 of 2.51 nM.

Compound `Cc1ccnc(Cl)c1-c1cc(C(C)C)c2cc(-c3cn(C)c(C(C)(C)O)n3)c(F)cn2c1=O` [WO2022070071, Example 8] displayed an IC50 of 13 nM.

The compound `Cc1ccnc(Cl)c1-c1cc(C(C)C)c2cc(-c3nc(C(C)(C)O)n(C)n3)c(F)cn2c1=O` [WO2022070071, Example 9] showed an IC50 of 13 nM.
